The supplement of paper PMC8967900

Key:
Experiment in all cases: selective drug sensitivity score (sDSS, relative to normal bone marrow) (sDSS (score)); higher = more potent and effective on the cell line relative to normal bone marrow cells
Conditions in all cases: 72 h
NALM-16 = test system: NALM-16
P12-ICHIKAWA = test system: P12-ICHIKAWA
DND-41 = test system: DND-41
697 = test system: 697
RPMI-8402 = test system: RPMI-8402
PF-382 = test system: PF-382
COG-LL-355h = test system: COG-LL-355h
PEER = test system: PEER
COG-LL-402h = test system: COG-LL-402h
MN-60 = test system: MN-60
CCRF-HSB2 = test system: CCRF-HSB2
KASUMI-9 = test system: KASUMI-9
JURKAT = test system: JURKAT
TANOUE = test system: TANOUE
KASUMI-2 = test system: KASUMI-2
COG-LL-319h = test system: COG-LL-319h
REH = test system: REH
ALL-SIL = test system: ALL-SIL
380 = test system: 380
MHH-CALL-2 = test system: MHH-CALL-2
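Also: ALL cell lines in 384-well plates, five doses spanning 10,000-fold, each plate scaled between vehicle and 100 µmol/L benzalkonium chloride controls, sDSS an adapted area-under-curve metric.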

Row | SMILES | selective drug sensitivity score (NALM-16) | selective drug sensitivity score (P12-ICHIKAWA) | selective drug sensitivity score (DND-41) | selective drug sensitivity score 697 | selective drug sensitivity score (RPMI-8402) | selective drug sensitivity score (PF-382) | selective drug sensitivity score (COG-LL-355h) | selective drug sensitivity score (PEER) | selective drug sensitivity score (COG-LL-402h) | selective drug sensitivity score (MN-60) | selective drug sensitivity score (CCRF-HSB2) | selective drug sensitivity score (KASUMI-9) | selective drug sensitivity score (JURKAT) | selective drug sensitivity score (TANOUE) | selective drug sensitivity score (KASUMI-2) | selective drug sensitivity score (COG-LL-319h) | selective drug sensitivity score (REH) | selective drug sensitivity score (ALL-SIL) | selective drug sensitivity score 380 | selective drug sensitivity score (MHH-CALL-2)
1 | CNC(=O)c1ccc(C)c(-n2c(C)cc(OCc3ccc(F)cc3F)c(Br)c2=O)c1 (top concentration 1000 nM) | 0 | 0 | 0 | 2 | 0 | 0 | 0 | 0 | 0 | 0 | 0 | 2.3 | 0.9 | 0 | 0 | 0 | 4 | 0 | 0 | 4.9
2 | CONC(=O)c1ccccc1Nc1cc(Nc2cc(C)nn2C(C)C)ncc1Cl (top concentration 1000 nM) | -0.94 | -0.94 | 0.56 | -0.94 | -0.94 | -0.94 | 1.66 | -0.94 | -0.94 | -0.94 | -0.94 | -0.94 | -0.94 | 0.36 | -0.94 | 9.66 | -0.94 | 0.86 | 1.16 | -0.94
3 | CCOc1ccn(-c2ccc(F)cc2)c(=O)c1C(=O)Nc1ccc(Oc2ccnc(N)c2Cl)c(F)c1 (top concentration 2500 nM) | 1 | 3 | 0 | 0.4 | 0.4 | 0 | 0 | 3.9 | 0 | 0 | 3.2 | 0 | 0 | 0 | 0 | 0 | 1.3 | 8 | 0 | 0
4 | CC[C@@H]1[C@H](F)C(=O)N[C@@H]1COc1nccc2cc(C(N)=O)c(OC)cc12 (top concentration 10000 nM) | -1.32 | 0.18 | -1.32 | 1.88 | 1.38 | -0.42 | 1.28 | 1.08 | 3.08 | 5.88 | 1.88 | 0.08 | 0.48 | -0.22 | -1.32 | 2.88 | -1.32 | -1.32 | -1.32 | -0.22
5 | C[C@H]1C[C@@H](n2c(Nc3ccc(OC(F)(F)F)cc3)nc3cc(CCC(=O)O)ccc32)CC(C)(C)C1 (top concentration 10000 nM) | -0.14 | 1.26 | -0.14 | -0.14 | 1.46 | 0.66 | 2.16 | 2.16 | -0.14 | -0.04 | 2.56 | 0.66 | 4.26 | -0.14 | -0.14 | -0.14 | 0.36 | 1.06 | -0.14 | 0.96
6 | O=C(NCc1ccncc1)C12CC3CC(C1)CC(c1ccc(Cl)cc1)(C3)C2 (top concentration 50000 nM) | -0.72 | 3.68 | 4.08 | 3.78 | 2.68 | 0.48 | 0.48 | 2.88 | 0.08 | -0.02 | 2.68 | 4.28 | 3.18 | -0.72 | -0.42 | -0.62 | 5.18 | 2.08 | 0.38 | 4.38
7 | O=C(O)c1ccc(CN2CCC(CN[C@@H]3C[C@H]3c3ccccc3)CC2)cc1 (top concentration 100000 nM) | -0.62 | -0.62 | -0.62 | -0.42 | -0.22 | -0.42 | 0.58 | -0.22 | -0.62 | -0.62 | -0.12 | -0.62 | -0.62 | -0.62 | -0.62 | -0.62 | -0.22 | -0.62 | -0.62 | -0.02
8 | COc1cc(N2CCN(C)CC2)ccc1Nc1nccc(-c2cn(C)c3cnccc23)n1 [AZ191] (top concentration 10000 nM) | -3.72 | -2.22 | 0.08 | 1.08 | 0.18 | -1.82 | -0.02 | -1.92 | -0.22 | -1.92 | 1.18 | 1.58 | -3.02 | -4.62 | -5.12 | -2.92 | 0.48 | -1.52 | -2.42 | 3.88
9 | Cc1cc(Nc2nc(N[C@@H](C)c3ncc(F)cn3)ncc2Cl)[nH]n1 [AZD1480] (top concentration 1000 nM) | -4.28 | -4.28 | 0.72 | -3.78 | -3.18 | -4.08 | 0.42 | -3.48 | -3.98 | -4.28 | -1.78 | -0.68 | -3.68 | -4.28 | -4.28 | -1.68 | -4.08 | -0.28 | -0.58 | -1.38
10 | COc1cc(CCc2cc(NC(=O)c3ccc(N4CC(C)NC(C)C4)cc3)n[nH]2)cc(OC)c1 (stereo not given) [AZD4547] (top concentration 1000 nM) | 0.56 | -0.14 | 1.66 | -0.04 | -0.14 | -0.14 | -0.14 | -0.14 | -0.14 | -0.14 | -0.14 | -0.14 | -0.14 | -0.14 | 0.26 | -0.04 | -0.14 | 0.56 | -0.14 | -0.14
11 | CN(C)C(=O)c1ccc(S(=O)(=O)c2ccc(NC(=O)[C@@](C)(O)C(F)(F)F)c(Cl)c2)cc1 [AZD7545] (top concentration 10000 nM) | 0.3 | 2.7 | 0.1 | 4.3 | 5.7 | 3.1 | -0.2 | 6.2 | -0.2 | 3.3 | 1.3 | -0.2 | 7 | 3.4 | 5.3 | 0.8 | 4.4 | 3.4 | -0.2 | -0.2
12 | COc1cc(C)c(/C=C/C(C)=C/C=C/C(C)=C/C(=O)O)c(C)c1C [Acitretin] (top concentration 10000 nM) | -1.6 | -0.8 | -1.6 | 0.6 | -1.6 | -1.4 | 2.3 | -0.6 | -0.1 | -1.6 | 0 | 2.9 | -1.2 | -1.6 | -1.6 | -1.6 | -1.6 | -1.6 | 15.2 | -0.7
13 | CCC1(c2ccc(N)cc2)CCC(=O)NC1=O (stereo not given) [Aminoglutethimide] (top concentration 10000 nM) | 0 | 0 | 0 | 0 | 0 | 0 | 0.6 | 0 | 0 | 0 | 0 | 0.6 | 0 | 0 | 0 | 0 | 0.6 | 0 | 0 | 2.4
14 | CNC(=O)c1ccc(N2C(=S)N(c3cnc(C#N)c(C(F)(F)F)c3)C(=O)C23CCC3)cc1F [Apalutamide] (top concentration 10000 nM) | 0 | 0 | 0 | 0 | 0 | 0 | 0 | 0.1 | 0.2 | 0 | 0 | 0 | 0 | 0.1 | 0 | 0 | 0 | 0 | 0 | 0
15 | N#CC1(c2ccc(NC(=O)c3cccnc3NCc3ccncc3)cc2)CCCC1 [Apatinib] (top concentration 10000 nM) | 0 | 0 | 1 | 0 | 0.1 | 0 | 0 | 2.2 | 0 | 0 | 0.3 | 0 | 0 | 0 | 2.1 | 0.6 | 0.1 | 0 | 0 | 1.2
16 | Cc1nc2cccc(N)c2c(=O)n1C1CCC(=O)NC1=O (stereo not given) [Avadomide (CC122)] (top concentration 10000 nM) | 0 | 0 | 0 | 2.7 | 0 | 0 | 2.6 | 0 | 0.2 | 2.3 | 0 | 10.7 | 0 | 0 | 0 | 0 | 3.6 | 0 | 0 | 0
17 | Nc1nc(Nc2ccc3c(c2)CC[C@@H](N2CCCC2)CC3)nn1-c1cc2c(nn1)-c1ccccc1CCC2 [BGB324] (top concentration 10000 nM) | -1.58 | 0.02 | 1.32 | 3.52 | 2.92 | 0.32 | 3.82 | 4.42 | 2.32 | -2.48 | 2.32 | 5.22 | 1.02 | -3.88 | -1.58 | 0.22 | 0.92 | 3.12 | -0.88 | -1.58
18 | CC1(C)C(C(=O)Nc2ccc(S(=O)(=O)c3ccc(NC(=O)C4C(C)(C)C4(C)C)cc3)cc2)C1(C)C [BRD7116] (top concentration 10000 nM) | 1.06 | 0.66 | -0.24 | 0.56 | 0.96 | 0.36 | -0.24 | -0.14 | -0.24 | -0.04 | 0.16 | 4.46 | 1.76 | -0.24 | -0.24 | 1.26 | 2.86 | -0.24 | -0.24 | 0.16
19 | CCS(=O)(=O)N1CC(CC#N)(n2cc(-c3ncnc4[nH]ccc34)cn2)C1 [Baricitinib] (top concentration 2500 nM) | -1.94 | -1.94 | 3.66 | -1.94 | -1.94 | -1.94 | -1.94 | 0.96 | -1.94 | -1.94 | -1.94 | -1.94 | -1.94 | -1.94 | -1.94 | -1.94 | -1.94 | 4.66 | -1.94 | -1.94
